Measured values from article PMC4767605 (Cancer chemotherapy and pharmacology, 2016).

Assays:
[1] = system: human NSCLC cell line Calu-6; conditions: ASP9853 alone, 100 mg/kg oral, twice daily
[2] = system: breast cancer (MDA-MB-231); assay: Breast cancer xenograft in mice, combination with paclitaxel; format: in vivo; conditions: ASP9853 in combination with paclitaxel; MDA-MB-231 xenograft; data not shown
advanced solid tumors = conditions: ASP9853 + docetaxel
prostate cancer (PC-3) = assay: Prostate cancer xenograft in mice, combination with paclitaxel; format: in vivo; conditions: ASP9853 in combination with paclitaxel; PC-3 xenograft; data not shown
ovarian cancer (MCUAS) = assay: Ovarian cancer xenograft in mice, combination with paclitaxel; format: in vivo; conditions: ASP9853 in combination with paclitaxel, data not shown

**Q.** With `O.O.O=C(/C=C/c1ccc(Cl)cc1)N[C@@H](Cc1ccccn1)C(=O)NCC(=O)N1CCC(Oc2cc(C(F)(F)F)ncn2)CC1` [ASP9853, (2E)-3-(4-chlorophenyl)-N-[(1S)-2-oxo-2-{[2-oxo-2-(4-{[6-(trifluoromethyl)-4-pyrimidinyl]oxy}-1-piperidinyl)ethyl]amino}-1-(2-pyridinylmethyl)ethyl]acrylamide dehydrate] as the compound, how does the “Antitumor activity in the Calu-6 NSCLC xenograft model” value [1] read?
**A.** no antitumor activity

**Q.** And the Tumor growth inhibition [2]?
**A.** greater tumor growth inhibition

**Q.** What about the “Duration of stable disease, mean (SD)” value (advanced solid tumors) of the same compound?
**A.** 49.4 (47.2) days

**Q.** And the “Duration of stable disease, median [range]” value (advanced solid tumors)?
**A.** 78 [1–133] days

**Q.** What about the “Patients with best overall response of stable disease” value (advanced solid tumors; Eight patients) of the same compound?
**A.** 38.1%

**Q.** What about the Objective radiographic responses (advanced solid tumors; eighteen patients evaluable) of the same compound?
**A.** no objective radiographic responses were observed

**Q.** What about the Tumor growth inhibition (prostate cancer (PC-3)) of the same compound?
**A.** greater tumor growth inhibition

**Q.** What about the Tumor growth inhibition (ovarian cancer (MCUAS)) of the same compound?
**A.** greater tumor growth inhibition
